PubChem BioAssay (NCI)
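In this assay, cells in 96-well plates receive the compound at five concentrations for 48 hours. Endpoints are linearly interpolated between the surrounding concentrations. TGI denotes the concentration required for complete inhibition of growth.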

How the values were obtained:
Assay in all cases: growth of human tumour cells (NCI), 48 h
[1] = test system: SK-MEL-2 melanoma
[2] = test system: LOX IMVI melanoma
[3] = test system: RPMI-8226 leukemia
[4] = test system: MDA-MB-231 breast
[5] = test system: OVCAR-8 ovarian
[6] = test system: MALME-3M melanoma
[7] = test system: IGROV1 ovarian
[8] = test system: NCI-H23 lung
[9] = test system: SK-OV-3 ovarian
[10] = test system: HCT-116 colon
[11] = test system: HS 578T breast
[12] = test system: BT-549 breast
[13] = test system: ACHN renal
[14] = test system: SN12C renal
[15] = test system: UACC-62 melanoma
[16] = test system: 786-0 renal
[17] = test system: HL-60(TB) leukemia
[18] = test system: KM12 colon
[19] = test system: PC-3 prostate
[20] = test system: DU-145 prostate
[21] = test system: MDA-N
[22] = test system: SK-MEL-28 melanoma
[23] = test system: MOLT-4 leukemia
[24] = test system: M14 melanoma
[25] = test system: NCI-H460 lung
[26] = test system: NCI/ADR-RES ovarian
[27] = test system: A498 renal
[28] = test system: NCI-H522 lung
[29] = test system: SR leukemia
[30] = test system: SK-MEL-5 melanoma
[31] = test system: COLO 205 colon
[32] = test system: UACC-257 melanoma
[33] = test system: MDA-MB-435
[34] = test system: OVCAR-4 ovarian
[35] = test system: HCT-15 colon
[36] = test system: UO-31 renal
[37] = test system: HOP-62 NSCLC
[38] = test system: TK-10 renal
[39] = test system: SF-539 CNS
[40] = test system: SF-295 CNS
[41] = test system: CCRF-CEM leukemia
[42] = test system: A549 NSCLC
[43] = test system: HOP-92 NSCLC
[44] = test system: OVCAR-5 ovarian
[45] = test system: HCC-2998 colon
[46] = test system: RXF 393 renal
[47] = test system: T-47D breast
[48] = test system: SW-620 colon
[49] = test system: U251 CNS
[50] = test system: MCF7 breast
[51] = test system: EKVX NSCLC
[52] = test system: OVCAR-3 ovarian
[53] = test system: SNB-75 CNS
[54] = test system: SNB-19 CNS
[55] = test system: SF-268 CNS
[56] = test system: HT29 colon
[57] = test system: NCI-H226 lung
[58] = test system: CAKI-1 renal
[59] = test system: K-562 leukemia

Measured: TGI

Cn1ccnc1Sc1ccc(/C=N/NC(=O)c2ccccc2O)cc1[N+](=O)[O-]
56.8 µM: [31]
13.3 µM: [23]
41.2 µM: [3]
not listed: [59]
> 100 µM: all other assays above

COc1cccc(N2C(=O)C3c4[nH]c5ccccc5c4C4c5ccccc5CCC4C3C2=O)c1 (stereo unspecified)
> 7.52 µM: [57]
6.3 µM: [53]
> 8.35 µM: [16]
7.06 µM: [11]
8.53 µM: [27]
> 7.12 µM: [34]
> 8.12 µM: [49]
> 7.28 µM: [9]
6.81 µM: [37]
> 4.01 µM: [29]
6.11 µM: [39]
9.9 µM: [5]
> 9.13 µM: [6]
not listed: [32]
> 10 µM: all other assays above

CN1CC2=C(OC(N)=C(C#N)C2c2cccs2)/C(=C/c2cccs2)C1 (stereo unspecified)
14.4 µM: [30]
> 78.3 µM: [56]
> 63.3 µM: [2]
48.5 µM: [46]
> 47.3 µM: [21]
> 49.3 µM: [10]
> 75.2 µM: [42]
> 26.5 µM: [23]
22.5 µM: [33]
> 29 µM: [41]
> 65.8 µM: [7]
> 69.9 µM: [16]
> 67.7 µM: [5]
39.4 µM: [34]
> 64.4 µM: [1]
> 53 µM: [28]
> 31.1 µM: [55]
12 µM: [17]
> 42.7 µM: [3]
> 78.9 µM: [18]
38.7 µM: [13]
> 60.5 µM: [19]
8.33 µM: [50]
58.9 µM: [25]
51.9 µM: [37]
1.47 µM: [47]
> 55.9 µM: [24]
> 60.2 µM: [51]
23.6 µM: [26]
38.4 µM: [6]
> 84.8 µM: [36]
81.7 µM: [20]
56.5 µM: [52]
not listed: [53]
> 100 µM: all other assays above

Cn1c(=O)c2c(nc(NCCCCl)n2CC(=O)O)n(C)c1=O
not listed: [6] | [39]
> 100 µM: all other assays above
